Assay results taken from PMC10253665, “Enhancing the Catalytic Activity of Thermo-Asparaginase from Thermococcus sibiricus by a Double Mesophilic-like Mutation in the Substrate-Binding Region” (International Journal of Molecular Sciences, 2023).

B1: TsA (L-asparaginase from Thermococcus sibiricus) (Thermococcus sibiricus MM 739; D54G/T56Q) (protein)
chain: MKKLLIIGTGGTIASAKTEQGYKSVLKIDEILKLAKIKLENGYKIDSTNIMNIGSQLIHPEDWEIIAKEVFKALDDYDGIIITHGTDTLAYTASMLSFMIKNPNKPIVLTGSMLPITENGSDAPRNIRTAIKFAMEDVAGVFVAFMDKIMLGCRTSKVRTLGLNAFMSINYPDVAYVKGEKILYNIPKEKFQPNGSPELDTKYEPRVVVLRVTPGLGGEIIDAVLDAGYKGIVLEGYGAGGLPYRKSNLLSKIKEITPKIPVIMTTQALYDGVDMRKYEVGRKALETGIIPAKDMTKEATITKLMWALGHTKDVEKIREIMHTNYVNEIKS

Tests used:
[1] = target: T1, TsA (L-asparaginase from Thermococcus sibiricus) (Thermococcus sibiricus, UniProt C6A532); test: direct Nesslerization (ammonia release); format: biochemical; conditions: 90 °C, Tris-HCl 0.05 M pH 9.0 (b36 says same conditions as mutant)
T1 construct: gene TSIB_1676
T1 sequence (C6A532 entry or part of it): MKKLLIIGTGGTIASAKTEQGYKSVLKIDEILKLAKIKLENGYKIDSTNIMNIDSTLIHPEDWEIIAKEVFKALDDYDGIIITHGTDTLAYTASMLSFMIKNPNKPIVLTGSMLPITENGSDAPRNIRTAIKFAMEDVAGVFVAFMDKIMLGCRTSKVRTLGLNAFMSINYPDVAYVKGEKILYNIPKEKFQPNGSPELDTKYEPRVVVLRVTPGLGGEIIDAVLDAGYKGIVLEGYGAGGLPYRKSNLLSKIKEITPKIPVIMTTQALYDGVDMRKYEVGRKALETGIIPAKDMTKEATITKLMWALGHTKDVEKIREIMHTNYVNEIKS

[2] = substrate: NC(=O)C[C@H](N)C(=O)O; test: direct Nesslerization (ammonia release); format: biochemical, Thermococcus sibiricus; conditions: 90 °C, glycine-NaOH 0.01 M pH 9.3, printed substrate range 20-250 μM

Molecule	Km [1]	Km [2]
NC(=O)C[C@H](N)C(=O)O [L-asparagine]	3000 µM	–
B1	–	6000 µM
